Data taken from US20150258127A1, “METHODS FOR PREVENTING ANTIPHOSPHOLIPID SYNDROME (APS)” (INSERM (INSTITUT NATIONAL DE LA SANTÉ ET DE LA RECHERCHE …, priority 2012, published 2015).
Like-named read-outs stand apart in the source and are kept apart here.

Legend:
[1] = test system: P-AKT (Ser^473) (mTORC2) in human micro vascular endothelial cells (HMEC); assay: Western blot of P-AKT (Ser473) (mTORC2) in HMEC exposed to APA IgG; type: cell-based; conditions: HMEC pretreated one hour with inhibitor (PP242 0.5 μM; LY294002 20 μM), then APA IgG 5 minutes
Procedure: (§1) All experiments were performed in duplicates.
(§2) Western blots were performed as previously described^28. […] Images were acquired using Fusion FX7 system (Vilber Loumart) and analysed using Bio-1D software (Vilber Loumart).

[2] = test system: P-S6RP (mTORC1) in human micro vascular endothelial cells (HMEC); assay: Western blot of P-S6RP (mTORC1) in HMEC exposed to APA IgG; type: cell-based; conditions: HMEC pretreated one hour with inhibitor (PP242 0.5 μM), then APA IgG 5 minutes
Procedure: as §1, §2

[3] = Cyclosporine, tacrolimus and sirolimus serum levels in transplant recipients; type: in vivo; conditions: human, 12 months post-transplantation, mean ± SEM
Procedure: (§3) The serum creatinine level was measured using a Synchron Cx4 autoanalyzer (Beckman Coulter, Villepinte, France). The glomerular filtration rate (GFR) was evaluated by iohexol clearance at 3- and 12-months post transplant as previously described^25. Cyclosporine and tacrolimus serum levels were determined by radioimmunoas say and sirolimus serum levels by high-performance liquid chromatography^26.

[4] = test system: kidney allograft microcirculation inflammation; assay: Microcirculation inflammation in kidney biopsies, Banff classification; type: in vivo, human; conditions: Tx aPL+ Siro+, mean ± SEM
Description: (§4) Biopsy samples and morphological analysis: Human kidney biopsies were either fixed, in alcoholic Bouin's solution (native kidneys) or in alcohol-formalin-acetic acid solution (transplant kidneys). Carotid and left anterior descending arteries from autopsy cases were fixed in formalin. All samples were then embedded in paraffin. Four-μm sections were stained with Periodic Acid Schiff (PAS), Masson's trichrome and hematoxyin and eosin (H&E). Schiff (PAS), Masson's trichrome and hematoxylin and eosin (HE). Kidney biopsies were independently examined and scored by two pathologists at Necker Hospital. Lesions related to APS-nephropathy were quantified according to the usual criteria^12. For each biopsy, the number of vessels displaying fibrous intimal hyperplasia were counted in all the fields of the section, and the data were expressed as the number of damaged vessels for the total number of vascular sections. Lesions related to allograft nephropathy were evaluated according to the Banff classification^27, which takes into account glomerular, tubular and interstitial changes. Autopsy cases were carefully examined by two pathologists at La Pitie Salpetiere Hospital. Vascular lesions, and in particular fibrous intimal hyperplasia, were searched for and characterized in all the tissues.

[5] = test system: kidney transplant recipients with antiphospholipid antibodies (Tx APA+); assay: Kidney transplant recipients cohort: vascular lesions, mGFR, allograft survival; type: in vivo, human
Description: Briefly, the inventors studied a first group of transplant recipients with APA+ (Tx APA+, n=37) and a control group of transplants recipients without APA− (Tx APA−, n=59) engrafted during the same period. These patients were followed in the Transplant unit of Necker Hospital. All patients with functioning allograft had surveillances biopsies and measured glomerular filtration rate (mGFR) at 3- and 12-months post transplantation. Patients had similar immunosuppressive regimen consisting in steroids, purine inhibitor and calcineurine inhibitor, except for thirteen and ten patients in the Tx APA− and Tx APA+ group, respectively, that received sirolimus starting at day 0 instead of calcineurin inhibitor.
as §3
as §4, with “Four-μm sections were stained with Periodic Acid Schiff (PAS), Masson's trichrome and hematoxyin and eosin (H&E). Schiff (PAS), Masson's trichrome and hematoxylin and eosin (HE).” left out, “Autopsy cases were carefully examined by two pathologists at La Pitie Salpetiere Hospital. Vascular lesions, and in particular fibrous intimal hyperplasia, were searched for and characterized in all the tissues.” left out

O=c1cc(N2CCOCC2)oc2c(-c3ccccc3)cccc12 [LY294002, 2-(4-Morpholinyl)-8-phenyl-4H-1-benzopyran-4-one]
APA-induced AKT phosphorylation / activation of the AKT pathway [1]: completely prevent

CC(C)n1nc(-c2cc3cc(O)ccc3[nH]2)c2c(N)ncnc21 [PP242]
APA-induced S6RP phosphorylation [2]: completely abolished

C=CC[C@@H]1/C=C(\C)C[C@H](C)C[C@H](OC)[C@H]2O[C@@](O)(C(=O)C(=O)N3CCCC[C@H]3C(=O)O[C@H](/C(C)=C/[C@@H]3CC[C@@H](O)[C@H](OC)C3)[C@H](C)[C@@H](O)CC1=O)[C@H](C)C[C@@H]2OC [Tacrolimus]
concentration at 12 months ([3]; Tx aPL+ Sirolimus− (n = 27), read-out: 12-Mo Tacrolimus trough levels): 10.3 ± 5.9 ng/mL
concentration at 12 months ([3]; Tx aPL− (n = 59), read-out: 12-Mo Tacrolimus trough levels): 10 ± 6 ng/mL

CO[C@H]1C[C@@H]2CC[C@@H](C)[C@@](O)(O2)C(=O)C(=O)N2CCCC[C@H]2C(=O)O[C@H]([C@H](C)C[C@@H]2CC[C@@H](O)[C@H](OC)C2)CC(=O)[C@H](C)/C=C(\C)[C@@H](O)[C@@H](OC)C(=O)[C@H](C)C[C@H](C)/C=C/C=C/C=C/1C [sirolimus, rapamycin]
C4d (C4 deposits), Banff score ([4]; Month 3 post-Tx): 0.2 ± 0.4
g (Glomerulitis), Banff score ([4]; Month 3 post-Tx): 0.1 ± 0.4
ptc (Peritubular Capillaritis), Banff score ([4]; Month 3 post-Tx): 0.1 ± 0.4
Banff microcirculation inflammation score ([4]; Month 12 post-Tx): 0.1 ± 0.3
C4d (C4 deposits), Banff score ([4]; Month 12 post-Tx): 0.1 ± 0.3
ptc (Peritubular Capillaritis), Banff score ([4]; Month 12 post-Tx): 0.1 ± 0.3
concentration at 12 months ([3]; Tx aPL+ Sirolimus+ (n = 10), read-out: 12-Mo Sirolimus levels): 18 ± 9 ng/mL
concentration at 12 months ([3]; Tx aPL− (n = 59), read-out: 12-Mo Sirolimus levels): 16 ± 2 ng/mL
measured glomerular filtration rate (mGFR) ([5]; Tx APA+ Siro+ patients, 12 months post transplantation, 39.6±14.6 in APA+ Siro−): 56 ± 10.8 mL/min
death-censored allograft survival ([5]; Tx aPL+ recipients, 12% without sirolimus): 70%
allograft survival rate ([5]; transplant recipients with antiphospholipid antibodies, 8% without sirolimus, up to 144 months post transplantation): 70%
